From paper PMC6694829, “Identification of Immunodominant HIV-1 Epitopes Presented by HLA-C*12:02, a Protective Allele, Using an Immunopeptidomics Approach” (Journal of Virology, 2019)

How the values were obtained:
[1] = tested on: PBMCs from HIV-1-infected HLA-C*12:02+ individuals; assay: ex vivo IFN-γ ELISpot assay; format: cell-based, human; conditions: for number of individuals with T cell response to the peptide: of 20 chronically HIV-1-infected HLA-C*12:02+ Japanese individuals, peptide 1 μM, positive >100 spots/10^6 PBMCs; for average magnitude of the T cell responses in individuals recognizing the epitope: ex vivo ELISpot, 20 HLA-C*12:02+ individuals screened, responders only
Experimental: Peripheral blood mononuclear cells (PBMCs) were separated from whole blood and stored at −80°C. ELISpot assays were performed as previously described ([52]). […] The plates were then incubated for 16 h at 37°C and subsequently washed with PBS before the addition of biotinylated anti-IFN-γ mAb (Mabtech) at 1 μg/ml. After the plates had been incubated at room temperature for 90 min, they were washed with PBS and then incubated with streptavidin-conjugated alkaline phosphatase (Mabtech) for 60 min at room temperature. Following washes with PBS, individual cytokine-producing cells were visualized as dark spots after a 20-min reaction with 5-bromo-4-chloro-3-indolyl phosphate and nitroblue tetrazolium in the presence of an alkaline phosphatase-conjugated substrate (Bio-Rad). The spots were counted with an Eliphoto-Counter (Minerva Teck). The number of spots was calculated per 10^6 PBMCs. One hundred spots per 10^6 PBMCs were defined as a positive response, as described previously ([52]).

CD8+ T cells [2] = assay: intracellular cytokine staining (ICS) assay with peptide-expanded bulk T cells; format: cell-based, human; conditions: peptide-expanded bulk T cells from responder KI-1407 (Env-RL9) or KI-1394 (Vif-DY9); IFN-γ ICS; words
Experimental: PBMCs from HIV-1-infected individuals were expanded by culture with each HIV-1 peptide for 2 weeks. .221-C1202 cells prepulsed with each HIV-1 peptide or .221-C1202 cells infected with HIV-1 NL4-3 were added to a 96-well plate together with bulk-cultured T cells, and the cells were incubated for 4 h at 37°C with brefeldin A (10 μg/ml). The cells were then stained with peridinin chlorophyll protein (PerCP)-labeled anti-CD3 mAb (BioLegend), phycoerythrin (PE)-labeled anti-CD4 mAb (BioLegend), and allophycocyanin (APC)-labeled anti-CD8 mAb (Dako) and subsequently fixed with 4% paraformaldehyde and incubated in permeabilization buffer (0.1% saponin–10% FBS–PBS). Thereafter, the cells were stained with FITC-labeled anti-IFN-γ mAb (BioLegend). Staining data were acquired on a FACSCanto II instrument (BD Biosciences) and analyzed using FlowJo 10.5.3 software.

HLA-C*12:02 = HLA-C*12:02 (Homo sapiens, UniProt P10321, A176E/A330V/C350S/D114A/D33Y/L171W/L180W/L218V/M285V/M309V/M331V/P208H/Q277E/Q291P/S123Y/S297R/S48A/T329A/T363A/V319A/V328M); assay: HLA class I stabilization assay using RMA-S-C1202 cells; format: cell-based; conditions: for binding to HLA-C*12:02 at higher peptide concentration / binding to HLA-C*12:02 (stabilization of surface HLA expression, expression index): RMA-S-C1202 cells, result in words; for binding to HLA-C*12:02 at higher peptide concentration: peptide 100 to 300 μM; for binding to HLA-C*12:02 (stabilization of surface HLA expression, expression index): peptide 0.1 to 100 μM, pulsed 26°C 1 h then 37°C 3 h, DT-9 staining, flow cytometry; for affinities of binding to HLA-C*12:02, Nef-MY9 compared with Nef-MY10: data not shown, words
Experimental: The affinity of peptide binding to HLA-C*12:02 was examined using RMA-S-C1202 cells as previously described ([67]). Briefly, RMA-S-C1202 cells were cultured at 26°C for 16 h and then pulsed with peptides at 26°C for 1 h and subsequently incubated at 37°C for 3 h. Staining of cell surface HLA-C molecules was performed with DT-9, an HLA-C-specific monoclonal antibody (mAb) (a gift from Mary Carrington, NIH), and fluorescein isothiocyanate (FITC)-conjugated sheep anti-mouse IgG (Jackson ImmunoResearch). Staining data were acquired on a FACSCanto II instrument (BD Biosciences) and analyzed using FlowJo 10.5.3 software. Relative HLA expression was calculated as the ratio of the mean fluorescence intensity (MFI) of peptide-pulsed RMA-S-C1202 cells to that of control (non-peptide-pulsed) cells kept at 26°C.

[3] = target: HLA-C*12:02 heavy chain and β2-microglobulin (Homo sapiens, UniProt P10321, A176E/A330V/C350S/D114A/D33Y/L171W/L180W/L218V/M285V/M309V/M331V/P208H/Q277E/Q291P/S123Y/S297R/S48A/T329A/T363A/V319A/V328M); assay: peptide/HLA refolding assay analyzed by FPLC; format: binding; conditions: for refolded peptide/HLA-C*12:02/β2m complex FPLC peak Height: heavy chain 20 μM, β2m 2 μM, peptide 85 μM, 48 h at 4°C, Superdex 75, Fig. 2d; for refolding with HLA-C*12:02 heavy chain and β2m: low-temperature refolding, FPLC, result in words
Experimental: Refolding of peptides with the HLA heavy chain and β2m was performed as previously described ([74]). Briefly, HLA-C*12:02 heavy chain and β2m were overexpressed in Escherichia coli as inclusion bodies and solubilized with 8 M urea. Before refolding, only β2m was refolded and purified with Superdex 75 pg 26/600 (GE Healthcare) chromatography, and the solubilized HLA heavy chain was treated with 6 M guanidine hydrochloride at 4°C overnight. The dissolved HLA heavy chain, purified monomer β2m, and peptide (final concentrations of 20 μM, 2 μM, and 85 μM, respectively) were diluted in 10 ml of refolding buffer (100 mM Tris-HCl [pH 8.0], 400 mM L-arginine, 2 mM EDTA-Na, 5 mM reduced L-glutathione, and 0.5 mM oxidized L-glutathione). After 48 h of slow stirring at 4°C, the peptide–HLA-C complex was then concentrated and purified by Superdex 75 pg 26/600 (GE Healthcare) chromatography.

CD8+ T cells [4] = conditions: comparison Nef-MY9 vs Nef-MY10; previous study; cited from earlier work
Excerpt: In addition to Nef-VY9, which was previously reported as immunodominant HLA-C*12:02-restricted epitope MY9 ([52], [53]), the C-terminally extended Nef-VF10 peptide (VARELHPEYF) was also among the HIV-1 peptides identified here. […] (Nef-MY9) much more efficiently than […]Y (Nef-MY10) ([52]), despite the fact that the affinities of ...

| Sequence | number of individuals with T cell response to the peptide [1] | HLA restriction of T cell response: recognition of peptide-prepulsed 721.221 cells expressing single HLA alleles (CD8+ T cells [2]) | binding to HLA-C*12:02 at higher peptide concentration (HLA-C*12:02) | refolded peptide/HLA-C*12:02/β2m complex FPLC peak Height [3] | refolding with HLA-C*12:02 heavy chain and β2m [3] | binding to HLA-C*12:02 (stabilization of surface HLA expression, expression index) (HLA-C*12:02) | average magnitude of the T cell responses in individuals recognizing the epitope [1] | affinities of binding to HLA-C*12:02, Nef-MY9 compared with Nef-MY10 (HLA-C*12:02) | recognition by PBMCs expanded in vitro with a peptide cocktail including MARELHPEYY (CD8+ T cells [4]) |
| --- | --- | --- | --- | --- | --- | --- | --- | --- | --- |
| DAKLVITTY [Vif-DY9, HIV-1 Vif 61–69 peptide …] | 1 | higher-magnitude response to Vif-DY9-pulsed HLA-B*35:01-expressing cells than to Vif-DY9-pulsed HLA-C*12:02-expressing cells | – | – | – | – | – | – | – |
| FLGKIWPSH [Gag-FH9, HIV-1 Gag 433–441 peptide …] | – | – | did not exhibit detectable binding | 2.27 mAU | shown to refold with HLA-C*12:02 heavy chain and β2m molecules | – | – | – | – |
| ILKEPVHGVYY [Pol-IY11, HIV-1 Pol 464–474 peptide […]] | 5/20 | – | – | 4.88 mAU | shown to refold with HLA-C*12:02 heavy chain and β2m molecules | exhibited affinity for HLA-C*12:02 molecules | 130 SFC/10^6 PBMCs | – | – |
| KGALDLSHF [Nef-KF9, HIV-1 Nef 82–90 peptide; synthesized as …] | – | – | did not exhibit detectable binding | 4.48 mAU | shown to refold with HLA-C*12:02 heavy chain and β2m molecules | – | – | – | – |
| LGKIWPSH [Gag-LH8, HIV-1 Gag 434–441 peptide LGKIWPSH] | – | – | did not exhibit detectable binding | 6.41 mAU | shown to refold with HLA-C*12:02 heavy chain and β2m molecules | – | – | – | – |
| MARELHPEY [Nef-MY9, reference compound] | 5/20 | – | – | – | complex of HLA-C*12:02, peptide, and β2m was generated | exhibited affinity for HLA-C*12:02 molecules | 167 SFC/10^6 PBMCs | similar | much more efficiently than […] (Nef-MY10) |
| MARELHPEYY [Nef-MY10, […], consensus version of Nef-VF10, reference compound] | – | – | – | – | – | – | – | similar | – |
| MSQVTNSATIM [Gag-MM11, HIV-1 Gag 367–377 peptide eluted from HLA-C*12:02; tested as clade B consensus […]] | – | – | did not exhibit detectable binding | 3.51 mAU | shown to refold with HLA-C*12:02 heavy chain and β2m molecules | – | – | – | – |
